Assay results published in patent US12194027B2, “Small molecule inhibitors of GPCR GPR68 and related receptors for treating cancer, glioblastoma, and other indications” (UNIVERSITY OF MARYLAND, BALTIMORE, priority 2019, dated 2025).

How the values were obtained:
[1] = target: GPR68/OGR1 (Homo sapiens (Human), UniProt Q15743); experiment: inhibition of GPR68/OGR1 in CHEM1-OGR1 cells, Fluo-8 calcium response to acidified media; format: cell-based; conditions: acidified media pH 6.4, Fluo-8
Description: Briefly, the methods were: On the day before the assay 20,000 cells per well of CHEM1-OGR1 cells were plated in 10% DMEM containing 10% FBS and 1% Pen/Strep into a 96 well plate. After 24 hours media was removed and cells were stained with 80 uL Fluo-8 calcium indicator dye according to manufacturer's protocol. After staining cells were treated with 20 uL of 4× concentration of test compounds. Using kinetic imaging in the Lionheart HCS fluorescence intensity was continuously measure at 10 frames per second, for 5 seconds before 100 μL of acidified media was added to the well resulting in a pH of 6.4. A ratio of fluorescence intensities prior to addition and at peak were calculated and averaged. The resulting data were platted and using a 4 parameter logistic regression EC50 for each test compound was determined.

[2] = system: U87glioblastoma cells; experiment: 3D tumoroid growth over time with GPR68 modulators; format: cell-based; conditions: 10 μM/20 μM, imaged every 12 hours
Description: A GPR68-positive allosteric modulator, Ogerin, was tested. U87glioblastoma cells were plated in low attachment round bottom 96-well plates and allowed to form tumor spheroids for 3 days (T0). These spheroids were treated with Vehicle (DMSO), 10 μM/20 μM Ogerin or 10 μM/20 μM Ogremorphin (OGM2). The spheroids were placed in the Lionheart™ HCS equipped with environmental control (5% CO2 at 37° C.) and imaged every 12 hours.

[3] = target: GPR68 (Homo sapiens (Human), UniProt Q15743); experiment: GPR68 inhibitory activity of OGM analogs (Table 5); format: cell-based
GPR68, sequence (Q15743 whole entry, looked up): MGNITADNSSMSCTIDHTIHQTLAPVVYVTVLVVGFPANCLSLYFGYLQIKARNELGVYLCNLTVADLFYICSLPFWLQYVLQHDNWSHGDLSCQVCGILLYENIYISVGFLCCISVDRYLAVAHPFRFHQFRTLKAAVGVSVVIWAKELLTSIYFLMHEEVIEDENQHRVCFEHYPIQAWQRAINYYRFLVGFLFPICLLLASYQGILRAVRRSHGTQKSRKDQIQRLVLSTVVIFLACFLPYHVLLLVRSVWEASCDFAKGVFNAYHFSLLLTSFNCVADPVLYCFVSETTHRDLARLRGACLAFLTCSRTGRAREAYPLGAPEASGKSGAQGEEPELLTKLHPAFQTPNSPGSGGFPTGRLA
Description: GPCR profiling assays were performed by Millipore (St. Louis, MO) using in cells expressing Gα15, a promiscuous G protein that enhances GPCR coupling to downstream Ca2+ signaling pathways.
Since GPCRs represent >30% of targets for FDA-approved small molecules and are known to modulate cell migration, activity against 158 GPCRs was assessed based on their chemical structures. GPCRs (158) were tested for agonist and antagonist activity at 10 μM. […] Chemical segregation analysis of zebrafish phenotype was conducted to further identify the inhibitory activity responsible for the zebrafish phenotype. […] The identities of the R groups in FIG. 2B are shown below in Table 5.
Chem1-GPR68 reporter cells were treated with 20 uM OM8345 for 2 hours and then rinsed with HBSS. […] The GPR68 inhibitory activity of OGM analogs segregated with the ability of the molecule to induce the phenotype in zebrafish. Neural crest progenitors labeled with In situ hybridization of FoxD3 show normal formation of the progenitor pool.

[4] = target: Lpa1 (Homo sapiens (Human), UniProt Q92633); experiment: Lpa1 activity of OGM analogs (Table 5); format: cell-based
Lpa1, sequence (Q92633 whole entry, species assumed): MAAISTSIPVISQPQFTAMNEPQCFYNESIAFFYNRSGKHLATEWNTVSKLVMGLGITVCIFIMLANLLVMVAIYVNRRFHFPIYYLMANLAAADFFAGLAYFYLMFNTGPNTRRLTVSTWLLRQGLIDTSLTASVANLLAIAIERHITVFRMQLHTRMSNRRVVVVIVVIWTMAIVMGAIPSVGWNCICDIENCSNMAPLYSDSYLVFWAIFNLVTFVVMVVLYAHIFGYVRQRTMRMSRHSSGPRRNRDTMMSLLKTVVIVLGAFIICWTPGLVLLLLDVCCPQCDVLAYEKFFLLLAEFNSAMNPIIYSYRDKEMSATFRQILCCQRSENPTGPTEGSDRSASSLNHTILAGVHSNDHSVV

[5] = system: zebrafish embryo; experiment: zebrafish embryo phenotype (pigmentation, morphology); format: in vivo; conditions: concentrations up to 200× the IC50
[6] = system: MeWo melanoma cell line; experiment: scratch assay for migration, MeWo; format: cell-based, human; conditions: OGM 5 μM, EIPA 10 μM, 20 hours
Description: (§1) Cells were grown to confluence and the cells were denuded with a P200 tip. A medium change was done to add fresh medium, remove loose cells and add compounds OGM (5 μM) and EIPA (10 μM). The area of the scratch was observed 20 hours later.
(§2) Since there are numerous parallels are found between neural crest cells and cancer during migration, we examined whether OGM could inhibit the migration of cells in human melanoma cell lines (Oppitz et al., 2007; Schriek et al., 2005; Sinnberg et al., 2018). […] A2058, MeWo and WM115 cells were grown to confluence and a stripe of cells were denuded with a p200 pipette tip “scratch” and rinsed with PBS. Cells were treated with OGM or EIPA, or DMSO and incubated in low serum media. Imaging was done at 30 minutes after “scratch” and then 20 hours afterwards. Areas were then measured and normalized to the initial area.
(§3) Previous studies with the MV3 melanoma cell line have shown that disruption of proton efflux with EIPA inhibition of NHE1 can also reduce melanoma motility (Ludwig et al., 2013; Schneider et al., 2009; Stock et al., 2007, 2005; Stüwe et al., 2007). […] Although the expression of GPR68 and other proton-sensing receptors have been characterized in various skin cancers (Merkel cell carcinoma, dermatofibrosarcoma protuberans, atypical fibroxanthoma, and pleomorphic dermal sarcoma), expression in melanoma cell lines has not investigated (Nassios et al., 2019).

[7] = system: WM115 melanoma cell line; experiment: scratch assay for migration, WM115; format: cell-based, human; conditions: OGM 5 μM, EIPA 10 μM, 20 hours
Description: as §1, §2, §3

[8] = system: A2058 melanoma cell line; experiment: scratch assay for migration, A2058; format: cell-based, human; conditions: OGM 5 μM, EIPA 10 μM, 20 hours
Description: as §1, §2, §3

GPR68/OGR1, sequence (Q15743 whole entry): as the sequence (Q15743 whole entry, looked up) above

Structure (SMILES) | EC50 [1] | further results
O=C1Nc2ccc(Cl)cc2C12NN=C(c1cccc3ccccc13)S2 (centres unmarked) [OGM23] | 5.04 µM | 
COc1ccc2c(c1)NC(=O)C21NN=C(c2ccnc(OC)c2)S1 (centres unmarked) [OGM51] | 1.44 µM | 
Nc1nc(NCc2ccccc2)nc(-c2ccccc2CO)n1 [Ogerin] |  | growth in 3D tumoroid culture [2]: Stimulates Growth
COc1ccc2c(c1)C1(NN=C(c3ccc(Cl)cc3)S1)C(=O)N2 (centres unmarked) [OGM22] | < 0.4 µM | 
O=C1Nc2ccccc2C12NN=C(c1ccc(Cl)cc1)S2 (centres unmarked) [OGM13] | < 0.4 µM | 
COc1ccc2c(c1)C1(NN=C(c3cccc4cccnc34)S1)C(=O)N2 (centres unmarked) [OGM38] | 3.69 µM | 
Cc1ccc2c(c1)C1(NN=C(c3ccccc3)S1)C(=O)N2 (centres unmarked) [OGM3] |  | IC50 [3]: 0.76 µM; IC50 [4]: 6.4 µM
CN1C(=O)C2(NN=C(c3cccc4ccccc34)S2)c2ccccc21 (centres unmarked) [OGM6] |  | IC50 [3]: 1.5 µM
COC(=O)c1ccc2c(c1)C1(NN=C(c3cccc4cccnc34)S1)C(=O)N2 (centres unmarked) [OGM44] | 2.92 µM | 
O=C1Nc2ccc(Cl)cc2C12NN=C(c1ccc(Cl)cc1)S2 (centres unmarked) [OGM19] | < 0.4 µM | 
COc1ccc2cc(C3=NNC4(S3)C(=O)Nc3ccc(Cl)cc34)ccc2c1 (centres unmarked) [OGM24] | 45.9 µM | 
COc1cc(Br)c(S(=O)(=O)Nc2ccc(Cl)c(O[C@@H]3CCN(C)C3)c2)cc1OC [UT2i, reference compound] |  | zebrafish phenotype [5]: failed to induce a noticeable phenotype
COc1ccc2cc(C3=NNC4(S3)C(=O)N(CC=C(C)C)c3ccc(Cl)cc34)ccc2c1 (centres unmarked) [OGM35] | > 10 µM | 
COc1cc(C2=NNC3(S2)C(=O)Nc2ccc(F)cc23)ccn1 (centres unmarked) [OGM57] | 0.805 µM | 
CN1C(=O)C2(NN=C(c3ccccc3)S2)c2ccccc21 (centres unmarked) [OGM5] |  | IC50 [3]: 0.81 µM
CC(C)=CCN1C(=O)C2(NN=C(c3cccc4ccccc34)S2)c2cc(Cl)ccc21 (centres unmarked) [OGM32] | > 10 µM | 
CCc1ccc2c(c1)C1(NN=C(c3ccnc(OC)c3)S1)C(=O)N2 (centres unmarked) [OGM49, 5-ethyl-5′-(2-methoxypyridin-4-yl)-1,2-dihydro-3′H-spiro[indole-3,2′-[1,3,4]thiadiazol]-2-one: 2,2,2-trifluoroacetic Acid] | 1.09 µM | 
CCc1ccc2c(c1)C1(NN=C(c3ccccc3O)S1)C(=O)N2 (centres unmarked) [OGM4] |  | IC50 [3]: 3.4 µM; IC50 [4]: 1.4 µM
CCc1ccc2c(c1)C1(NN=C(c3cccnc3)S1)C(=O)N2 (centres unmarked) [OGM48] | > 10 µM | 
Cc1noc(-c2ccc(CSCCC(=O)O)cc2)c1NC(=O)OC(C)c1ccccc1Cl (centres unmarked) [LPAi, reference compound] |  | IC50 [4]: 0.25 µM; zebrafish phenotype [5]: failed to induce a noticeable phenotype
COc1ccc2c(c1)C1(NN=C(c3cccnc3)S1)C(=O)N2 (centres unmarked) [OGM50] | 1.86 µM | 
COC(=O)c1ccc2c(c1)C1(NN=C(c3cccnc3)S1)C(=O)N2 (centres unmarked) [OGM47] | > 10 µM | 
CCN(c1nc(N)c(C(=O)NC(=N)N)nc1Cl)C(C)C [EIPA, reference compound] |  | migration in scratch assay [6]: refractory to the inhibition; migration in scratch assay [7]: inhibited migration; migration in scratch assay [8]: inhibited migration

Continued, in another order:

EC50 [1] | Structure (SMILES) | further results
0.796 µM | O=C1Nc2ccc(Cl)cc2C12NN=C(c1ccc(F)cc1)S2 (centres unmarked) [OGM21] | 
0.9 µM | NS(=O)(=O)c1ccc2c(c1)C1(NN=C(c3cccnc3)S1)C(=O)N2 (centres unmarked) [OGM53] | 
> 10 µM | CC(C)=CCN1C(=O)C2(NN=C(c3cccc4ccccc34)S2)c2ccccc21 (centres unmarked) [OGM33] | 
> 10 µM | CCc1ccc2c(c1)C1(NN=C(c3ccc(OC)cc3)S1)C(=O)N2 (centres unmarked) [OGM28] | 
< 0.4 µM | CCc1ccc2c(c1)C1(NN=C(c3cccc4cccnc34)S1)C(=O)N2 (centres unmarked) [OGM58] | 
> 10 µM | COc1ccc(C2=NNC3(S2)C(=O)N(CC=C(C)C)c2ccccc23)cc1 (centres unmarked) [OGM30] | 
10 µM | O=C1Nc2ccc(F)cc2C12NN=C(c1ccc3ncccc3c1)S2 (centres unmarked) [OGM45, 5-fluoro-5′-(quinolin-6-yl)-1,2-dihydro-3′H-spiro[indole-3,2′-[1,3,4]thiadiazol]-2-one] | 
0.9 µM | COc1ccc(C2=NNC3(S2)C(=O)Nc2ccc(OC)cc23)cc1 (centres unmarked) [OGM17] | 
1.62 µM | O=C1Nc2ccc(Cl)cc2C12NN=C(c1ccccc1)S2 (centres unmarked) [OGM7] | 
0.985 µM | Cc1ccc(C2=NNC3(S2)C(=O)Nc2ccc(F)cc23)cc1 (centres unmarked) [OGM18] | 
> 10 µM | COc1ccc2c(c1)C1(NN=C(c3ccc4ncccc4c3)S1)C(=O)N2 (centres unmarked) [OGM43] | 
0.708 µM | COc1ccc2cc(C3=NNC4(S3)C(=O)Nc3ccc(F)cc34)ccc2c1 (centres unmarked) [OGM26] | 
> 10 µM | COc1ccc(C2=NNC3(S2)C(=O)N(CC=C(C)C)c2ccc(Cl)cc23)cc1 (centres unmarked) [OGM29] | 
0.822 µM | NS(=O)(=O)c1ccc2c(c1)C1(NN=C(c3ccccc3)S1)C(=O)N2 (centres unmarked) [OGM52] | 
> 10 µM | COc1ccc2cc(C3=NNC4(S3)C(=O)N(CC=C(C)C)c3ccccc34)ccc2c1 (centres unmarked) [OGM34] | 
< 0.4 µM | CCc1ccc2c(c1)C1(NN=C(c3ccncc3)S1)C(=O)N2 (centres unmarked) [OGM60] | 
0.17 µM | CCc1ccc2c(c1)C1(NN=C(c3cccc4ccccc34)S1)C(=O)N2 (centres unmarked) [OGM1] | IC50 [3]: 0.16 µM
> 10 µM | CCc1ccc2c(c1)C1(NN=C(c3ccc4cc(OC)ccc4c3)S1)C(=O)N2 (centres unmarked) [OGM27] | 
